Laboratory results from paper PMC8878452, “A Tale of Toxin Promiscuity: The Versatile Pharmacological Effects of Hcr 1b-2 Sea Anemone Peptide on Voltage-Gated Ion Channels” (Marine Drugs, 2022).
“Also recorded” adds a separate entry of the source. Bridges are numbered along the chain shown (N, C = ends). Where no end group is shown, it is not given here.

Columns and labels:
hNav1.8 = experiment: TEVC, Nav1.8 in Xenopus oocytes; assay type: cell-based, human
From the text: (§1) For the expression of Kv channels (rKv1.1, rKv1.2, rKv1.3, rKv1.4, rK1.5, rKv1.6, hKv2.1, hKv3.1, rKv4.2, hKv7.1, hKv7.2/7.3, hKv7.4, KQT1 (from the roundworm Caenorhabditis elegans), hKv10.1 (hEAG1), hKv11.1 (hERG1), and Shaker, from Drosophila melanogaster), Nav channels (rNav1.1, rNav1.2, rNav1.3, rNav1.4, hNav1.5, mNav1.6, hNav1.7, hNav1.8, and BgNav (from the cockroach Blattella germanica), as well as the hβ1 and rβ1 subunits, and Cav channels (rCav3.1, hCav3.2, and rCav3.3) in Xenopus oocytes, the linearized plasmids were transcribed using the T7 or SP6 mMESSAGEmMACHINE transcription kit (Ambion, Austin, TX, USA). Mature female animals were purchased from Nasco (Fort Atkinson, WI, USA) and were housed in the Aquatic Facility (KU Leuven) in compliance with the regulations of the European Union (EU) concerning the welfare of laboratory animals as declared in Directive 2010/63/EU. The use of X. laevis oocytes was approved by the Animal Ethics Committee of the KU Leuven, with the license number P186/2019.
(§2) Stage V–VI oocytes were collected from anesthetized female X. laevis frog as previously described, with the frogs anesthetized by placement in a 0.1% tricaine solution (amino benzoic acid ethyl ester; Merck, Kenilworth, NJ, USA). Oocyte microinjection was performed using a microinjector (Drummond Scientifc®, Broomall, PA, USA), with a programmed cRNA injection volume of 4–50 nL, depending on channel subtype. The oocytes were incubated in ND96 solution (96 mM NaCl; 2 mM KCl; 1.8 mM CaCl2; 2 mM MgCl2, and 5 mM HEPES, pH 7.4), supplemented with 50 mg/L of gentamicin sulfate.
(§3) Electrophysiological measurements were performed at room temperature (18–22 °C) using the two-electrode voltage-clamp (TEVC) technique. Data were obtained using a GeneClamp 500 amplifier (Axon Instruments®, Burlingame, CA, USA) and Clampex9 software (Axon Instruments®, USA) was responsible for data acquisition and storage. Glass micropipettes were produced using glass capillaries (borosilicate WPI 1B120-6) and drawn in a WPI (World Precision Instruments®, Sarasota, FL, USA) manual stretcher. The bath and perfusion solutions were either the previously described ND96 (Nav and Kv channels) or calcium-free ND96 supplemented with 10 mM BaCl2 (Cav channels).
(§4) Whole-cell currents of oocytes were recorded 1 to 3 days after RNA injection. The current and voltage electrodes were filled with 3 M KCl, and their resistance was adjusted from 1.0 to 2.5 MΩ. Currents were sampled at 20 kHz (Nav channels) and 10 kHz (Kv and Cav channels) and filtered using a four-pole Bessel low-pass Bessel filter at 1 kHz for sodium and […] for potassium and calcium, except for the hERG ion channel in which the currents were filtered at 1 kHz. Leak subtraction was performed using a P/4 protocol. Kv1.x currents were evoked by 500 ms depolarizations to 0 mV, followed by a 500 ms pulse to −50 mV from a holding potential of −90 mV. Kv2.1, Kv3.1, Kv4.2, Kv7.x, and KQT1 currents were elicited by 700 ms pulses to +20 mV from a holding potential of −90 mV. Current traces of the hERG1 channel were elicited by applying a +40 mV prepulse for 2 s, followed by a step of −120 mV for 2 s. Current traces of hEAG1 were elicited by a 2 s depolarization to 0 mV from a holding potential of −90 mV. Sodium current traces were evoked by a 100 ms depolarization to 0 mV. For Cav channels, current traces were elicited by 700 ms depolarizations to −20 mV from a holding potential of −90 mV. The current–voltage relationships were determined by 50 ms step depolarizations between −90 and +65 mV using 5 or 10 mV increments. All electrophysiological data were analyzed following the procedures described by Peigneur et al., 2012 [20].
(§5) All values were expressed as means ± SEM. Differences in ionic currents between the control and toxin conditions were compared by a one-way ANOVA, followed by Dunnett’s multiple comparisons test. Differences were considered statistically significant when […].

rKv1.3 = experiment: TEVC, Kv1.3 in Xenopus oocytes; assay type: cell-based, rat; conditions: 1 µM, ND96 pH 7.4, 18–22 °C, n ≥ 3
From the text: as §1, with “P186/2019. […]” for “P186/2019.”
(§6) Whole-cell currents of oocytes were recorded 1 to 3 days after RNA injection. […] The current–voltage relationships were determined by 50 ms step depolarizations between −90 and +65 mV using 5 or 10 mV increments. All electrophysiological data were analyzed following the procedures described by Peigneur et al., 2012 [20].
(§7) All values were expressed as means ± SEM. […]

ASIC3 = conditions: cited from earlier work
From the text: (§8) Hcr 1b-2, the major peptide, presents 41 residues and belongs to the class 1b of sea anemone toxins, with a molecular mass of 4518.9 Da (Uniprot accession number C0HL52).

ASIC1a = conditions: cited from earlier work
From the text: as §8

BgNav = experiment: TEVC, BgNav in Xenopus oocytes; assay type: cell-based, Blattella germanica
From the text: as §1, §2, §3
as §4, with “Current traces of hEAG1 were elicited by a 2 s depolarization to 0 mV from a holding potential of −90 mV. Sodium current traces were evoked by a 100 ms depolarization to 0 mV. For Cav channels, current traces were elicited by 700 ms depolarizations to −20 mV from a holding potential of −90 mV.” left out
as §7

rKv1.4 = experiment: TEVC, Kv1.4 in Xenopus oocytes; assay type: cell-based, rat
From the text: as §1, §2, §3
as §4, with “Current traces of hEAG1 were elicited by a 2 s depolarization to 0 mV from a holding potential of −90 mV. Sodium current traces were evoked by a 100 ms depolarization to 0 mV. For Cav channels, current traces were elicited by 700 ms depolarizations to −20 mV from a holding potential of −90 mV.” left out
as §7

rKv4.2 = experiment: TEVC, Kv4.2 in Xenopus oocytes; assay type: cell-based, rat; conditions: 1 µM, ND96 pH 7.4, 18–22 °C, n ≥ 3
From the text: as §1, with “P186/2019. […]” for “P186/2019.”
as §6, §7

rKv1.2 = experiment: TEVC, Kv1.2 in Xenopus oocytes; assay type: cell-based, rat
From the text: as §1, §2, §3
as §6, with “injection. The current and voltage electrodes were filled with 3 M KCl, and their resistance was adjusted from 1.0 to 2.5 MΩ.” for “injection.”
as §7

rNav1.2 = experiment: TEVC, Nav1.2 in Xenopus oocytes; assay type: cell-based, rat
From the text: as §1, §2, §3, §4, §5

[1] = tested on: voltage-gated potassium (KV), sodium (NaV), and calcium (CaV) channels; experiment: TEVC screening panel of 28 voltage-gated ion channels; assay type: cell-based; conditions: 1 µM; 28 channels screened
From the text: as §1, with “P186/2019. […]” for “P186/2019.”
as §6, §7

hKv7.1 = experiment: TEVC, Kv7.1 in Xenopus oocytes; assay type: cell-based, human
From the text: as §1, §2, §3
as §4, with “Current traces of hEAG1 were elicited by a 2 s depolarization to 0 mV from a holding potential of −90 mV. Sodium current traces were evoked by a 100 ms depolarization to 0 mV. For Cav channels, current traces were elicited by 700 ms depolarizations to −20 mV from a holding potential of −90 mV.” left out
as §7

tested animals = conditions: cited from earlier work
Experimental: Recently, the Hcr 1b-2 sequence was determined, together with two other peptides, named Hcr1b-3 and Hcr1b-4, which share 97.6% and 78.0% of sequence identity, respectively (Figure 1).

[2] = 1 µM, 100 ms depolarization to 0 mV, mean ± SEM, n ≥ 3
[3] = 1 µM, TEVC, ND96 pH 7.4, 18–22 °C, n ≥ 3

GTPCKCHGYIGVYWFMLAGCPNGYGYNLSCPYFLGICCVKK (disulfide 4-37, 6-30, 20-38 (inferred)) [Hcr 1b-2]
effect on activation or inactivation, Nav1.8 (hNav1.8; 1 µM): no significant effect
Shift in Vhalf activation, Nav1.8 (hNav1.8; 1 µM vs control (ND96)): −0.3 mV
Shift in Vhalf inactivation, Nav1.8 (hNav1.8; 1 µM vs control (ND96)): −1.3 mV
reduction of peak amplitude (INa), Nav1.8 (hNav1.8; [2]): 18.5 ± 1.9%
Vhalf activation, Nav1.8 (hNav1.8; 1 µM, control (ND96) −2.3 ± 0.1, mean ± SEM, n ≥ 3): −2.6 ± 0.1 mV
Vhalf inactivation, Nav1.8 (hNav1.8; 1 µM, control (ND96) −35.6 ± 0.4, mean ± SEM, n ≥ 3): −36.9 ± 0.5 mV
effect on potassium current, Kv1.3 (rKv1.3): inhibition
IC50 (ASIC3): 15.9 ± 1.1 µM
IC50 (ASIC1a): 4.8 ± 0.3 µM
Shift in Vhalf activation, BgNav (BgNav; 1 µM vs control (ND96)): 1.9 mV
Shift in Vhalf inactivation, BgNav (BgNav; 1 µM vs control (ND96)): −5.0 mV
reduction of peak amplitude (INa) / inhibition, BgNav (BgNav; [2]): 17.7 ± 1.2%
Vhalf activation, BgNav (BgNav; 1 µM, control (ND96) −29.0 ± 0.1, mean ± SEM, n ≥ 3): −27.1 ± 0.1 mV
Vhalf inactivation, BgNav (BgNav; 1 µM, control (ND96) −47.9 ± 0.3, mean ± SEM, n ≥ 3): −52.9 ± 0.3 mV
gating-modifier effect (voltage-current relationship), Kv1.4 (rKv1.4; 1 µM): non-significant gating-modifier effect; also recorded: negligible shift in the midpoint of activation
Shift in Vhalf activation, Kv1.4 (rKv1.4; 1 µM vs control (ND96)): 2.5 mV
activity (inhibition of current), Kv1.4 (rKv1.4; 1 µM, 500 ms depolarization to 0 mV from −90 mV, mean ± SEM, n ≥ 3): 46.9 ± 4.3%
effect on potassium current, Kv1.4 (rKv1.4; [3]): inhibition
Vhalf activation, Kv1.4 (rKv1.4; 1 µM, control (ND96) 7.5 ± 0.7, mean ± SEM): 10.0 ± 0.5 mV
effect on potassium current, Kv4.2 (rKv4.2): inhibition
gating-modifier effect (voltage-current relationship), Kv1.2 (rKv1.2; 1 µM): non-significant gating-modifier effect
Shift in Vhalf activation, Kv1.2 (rKv1.2; 1 µM vs control (ND96)): −4.9 mV
effect on potassium current, Kv1.2 (rKv1.2; [3]): activation
Vhalf activation, Kv1.2 (rKv1.2; 1 µM, control (ND96) −24.7 ± 0.7, mean ± SEM): −29.6 ± 0.89 mV
effect on activation or inactivation, Nav1.2 (rNav1.2; 1 µM): no significant effect
Shift in Vhalf activation, Nav1.2 (rNav1.2; 1 µM vs control (ND96)): 3.7 mV
Shift in Vhalf inactivation, Nav1.2 (rNav1.2; 1 µM vs control (ND96)): −1.1 mV
reduction of peak amplitude (INa), Nav1.2 (rNav1.2; [2]): 52.8 ± 7.9%
Vhalf activation, Nav1.2 (rNav1.2; 1 µM, control (ND96) −19.2 ± 0.1, mean ± SEM, n ≥ 3): −15.5 ± 0.2 mV
Vhalf inactivation, Nav1.2 (rNav1.2; 1 µM, control (ND96) −33.6 ± 0.4, mean ± SEM, n ≥ 3): −34.7 ± 0.6 mV
number of targets acted on, of 28 screened ion channels [1]: 26 targets
gating-modifier effect (voltage-current relationship), Kv7.1 (hKv7.1; 1 µM): stronger shift
Shift in Vhalf activation, Kv7.1 (hKv7.1; 1 µM vs control (ND96)): 6.4 mV
activity (inhibition of current), Kv7.1 (hKv7.1; 1 µM, 700 ms pulse to +20 mV from −90 mV, mean ± SEM, n ≥ 3): 36.2 ± 1.3%
effect on potassium current, Kv7.1 (hKv7.1; [3]): inhibition; also recorded: inhibits
Vhalf activation, Kv7.1 (hKv7.1; 1 µM, control (ND96) 5.8 ± 0.4, mean ± SEM): 12.2 ± 0.6 mV
signs of neurotoxicity or changes in behavior (tested animals): None of these three peptides showed signs of neurotoxicity or changes in the behavior
